Consider 14 compounds from US11220524B2, “Selective inhibitors of protein arginine methyltransferase 5 (PRMT5)” (PRELUDE THERAPEUTICS, INCORPORATED, priority 2017, dated 2022).

The target of assay [1] is PRMT5/MEP50 complex (Homo sapiens (Human), UniProt O14744). Description: Biochemical assay: PRMT5/MEP50 methylation of histone H2A with 3H-SAM, filter plate scintillation. Put shortly:
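5 nM PRMT5/MEP50 preincubated with compound 15–20 min at room temperature, with 5 μM histone H2A as substrate; reaction started with 1 μM 3H-SAM and run 60 min at 30 °C. TCA-stopped, filter-captured methylation counted by scintillation; IC50 from 4-parameter Hill fit.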

The subject of assay [2] is Symmetric Di-Methyl Arginine (sDMA) in Granta-519 cells. The assay is described as follows: Western blot for symmetric di-methyl arginine (sDMA) marks in Granta cells, 3 days treatment. In kind it is cell-based. Particulars: Homo sapiens, 3 days. The procedure: Cell Treatment and Western Blotting for Detecting Symmetric Di-Methyl Arginine (sDMA) and Histone H3R8 Dimethyl Symmetric (H3R8me2s) Marks
Initial compounds screening in A549 cells: Compounds were dissolved in DMSO to make 10 mM stock and further diluted to 0.1, and 1 mM. A549 cells were maintained in PRMI 1640 (Corning Cellgro, Catalog #: 10-040-CV) medium supplemented with 10% v/v FBS (GE Healthcare, Catalog #: SH30910.03). One day before experiment, 1.25×10^5 cells were seeded in 6 well plate in 3 mL medium and incubated overnight. The next day, medium was changed and 3 uL of compound solution was added (1:1,000 dilution, 0.1 and 1 uM final concentration; DMSO concentration: 0.1%), and incubated for 3 days. Cells incubated with DMSO was used as a vehicle control. Cells were washed once with PBS, trypsinized in 150 uL 0.25% Trypsin (Corning, Catalog #: 25-053-CI), neutralized with 1 mL complete medium, transferred to microcentrifuge tubes and collected. Cell pellet was then resuspended in 15 uL PBS, lysed in 4% SDS, and homogenized by passing through homogenizer column (Omega Biotek, Catalog #: HCR003). Total protein concentrations were determined by BCA assay (ThermoFisher Scientific, Catalog #: 23225). Lysates were mixed with 5× Laemmli buffer and boiled for 5 min. Forty ug of total protein was separated on SDS-PAGE gels (Bio-Rad, catalog #: 4568083, 4568043), transferred to PVDF membrane, blocked with 5% dry milk (Bio-Rad, Catalog #: 1706404) in TBS with 0.1% v/v Tween 20 (TBST) for 1 hour at room temperature (RT), and incubated with primary antibodies (sDMA: Cell signaling, Catalog #: 13222, 1:3,000; H3R8me2s: Epigentek, Catalog #: A-3706-100, 1:2,000; β-Actin: Abcam, Catalog #: ab8227, 1:10,000) in 5% dry milk in TBST at 4° C. for overnight. The next day, membranes were washed with TBST, 5×5 min, and incubated withhP conjugated seconded antibody (GE Healthcare; Catalog #: NA934-1ML; 1:5,000) for 2 hours at RT, followed by 5×5 min washes with TBST, and incubation with ECL substrates (Bio-Rad, Catalog #: 1705061, 1705062). Chemiluminescent signal was captured with FluoChem HD2 imager (Proteinsimple) and analyzed by ImageJ.
Cells incubated with DMSO was used as a vehicle control. Cells were harvested and subjected to western blot analysis as described above. SmD3me2s and H3R8me2s bands were quantified by ImageJ. Signals were normalized to β-Actin and DMSO control. IC50 values were calculated using Graphpad Prism.
(Immunoblotting shows a protein as a band on a membrane.)

The test system of assay [3] is Granta-519 cells. The assay is described as follows: Cell proliferation assay on Granta-519 cells (CCK-8, day 10). The format is cell-based. Particulars: Homo sapiens. The protocol: Cell Proliferation Assay to Determine IC50 on Granta-519 Cells
Granta-519 cells were maintained in PRMI 1640 (Corning Cellgro, Catalog #: 10-040-CV) medium supplemented with 10% v/v FBS (GE Healthcare, Catalog #: SH30910.03). Compounds were dissolved in DMSO to make 10 mM stocks and stored at −20° C. Nine-point, 3-fold serial dilutions were made with DMSO with top concentration at 1 mM (working stocks).
On day of experiment, compound working stocks were further diluted at 1:50 with fresh medium in 96 well plate, and 10 μL of diluted drugs were added to a new 96 well plate for proliferation assay. Cells growing at exponential phase were spun down at 1500 rpm for 4 min and resuspend in fresh medium to reach a density of 0.5×10^6 cells/ml. 200 ul of cells were added to 96 well plate containing diluted drugs and incubated for 3 days. DMSO was used a vehicle control.
One day 3, 10 μL of Cell Counting Kit-8 (CCK-8, Jojindo, CK04-13) solution was added to a new 96 well plate. Cells incubated with drugs for 3 days were resuspended by pipetting up and down, and 100 μL of cells were transferred to 96 well plate containing CCK-8 reagent to measure viable cells. Plates were incubated in C02 incubator for 2 hours and OD450 values were measured with a microplate reader (iMark microplate reader, Bio-Rad).
For re-plating, compound working stocks were diluted at 1:50 with fresh medium and 10 μL of diluted drugs were added to anew 96 well plate. Cells from Day 3plate (50 ul) were added to 96 well plate containing fresh drug and additional 150 of fresh medium was added to reach 200 ul volume. Plate was returned to CO2incubator and incubated for 3more days. Viable cells measurement and re-plating were repeated on day 6, and the final viable cells measurement was taken on day 10.
Percentage of viable cells, relative to DMSO vehicle control, were calculated and plotted in Graphpad Prism ([Inhibitor] vs. normalized response-Variable slope) to determine proliferation IC50 values on day 10.

Where [4] appears, read: histone H2A 5 μM, SAM 1 μM, enzyme 5 nM, read-out: PRMT5/MEP50 IC50.
The mark [5] stands for this setting: 240 h, Granta-519 cell line, read-out: Proliferation IC50.

Where two headings read alike, the source gives them in different places.

PRMT5/MEP50 complex, sequence (O14744 whole entry): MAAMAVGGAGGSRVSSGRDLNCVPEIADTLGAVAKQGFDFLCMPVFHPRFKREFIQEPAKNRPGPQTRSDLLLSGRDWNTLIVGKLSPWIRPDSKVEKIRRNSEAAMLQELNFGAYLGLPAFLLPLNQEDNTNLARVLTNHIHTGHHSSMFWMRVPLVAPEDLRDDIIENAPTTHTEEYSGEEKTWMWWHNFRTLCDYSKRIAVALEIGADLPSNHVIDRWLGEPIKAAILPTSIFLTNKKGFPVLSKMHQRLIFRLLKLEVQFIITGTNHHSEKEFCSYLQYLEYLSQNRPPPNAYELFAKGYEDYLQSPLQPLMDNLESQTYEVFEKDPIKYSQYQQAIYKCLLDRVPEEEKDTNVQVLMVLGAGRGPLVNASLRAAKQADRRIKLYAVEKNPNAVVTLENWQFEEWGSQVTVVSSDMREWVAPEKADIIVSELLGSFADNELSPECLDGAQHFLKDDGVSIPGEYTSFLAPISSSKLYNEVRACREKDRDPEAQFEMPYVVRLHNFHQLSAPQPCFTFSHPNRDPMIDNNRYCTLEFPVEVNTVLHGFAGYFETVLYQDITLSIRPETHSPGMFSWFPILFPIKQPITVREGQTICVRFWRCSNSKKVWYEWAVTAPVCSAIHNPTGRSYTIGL
PRMT5/MEP50 complex, sequence (Q9BQA1 whole entry partner): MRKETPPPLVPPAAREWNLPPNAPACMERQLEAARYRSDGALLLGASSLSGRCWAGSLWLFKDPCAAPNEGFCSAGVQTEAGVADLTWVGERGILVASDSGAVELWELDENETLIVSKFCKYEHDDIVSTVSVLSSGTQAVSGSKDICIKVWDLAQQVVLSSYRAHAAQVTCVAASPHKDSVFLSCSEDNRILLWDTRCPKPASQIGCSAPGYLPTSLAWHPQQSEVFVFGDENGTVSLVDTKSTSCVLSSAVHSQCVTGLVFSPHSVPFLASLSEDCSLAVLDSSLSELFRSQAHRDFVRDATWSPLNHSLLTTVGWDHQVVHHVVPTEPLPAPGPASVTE

Turning to `CO/N=c1\nc[nH]c2c1ccn2[C@@H]1C[C@H](CCc2ccc3ccc(NCC4CC4)nc3c2)[C@@H](O)[C@H]1O` [Example 90-B, 7-((1R,2S,3R,4S)-4-(2-(2-((cyclopropylmethyl)amino)quinolin-7-yl)ethyl)-2,3-dihydroxycyclopentyl)-1,7-dihydro-4H-pyrrolo[2,3-d]pyrimidin-4-one O-methyl oxime], the IC50 came to 0.82 nM in assay [1] (biochemical potency, read-out: PRTMT5/MEP50 IC50); 28 nM in assay [2] (Granta-519, 72 h, Granta cell line); 229 nM in assay [3] (Granta-519, 240 h, Granta cell line, read-out: Prolif. IC50).
As for `CCO/N=c1/nc[nH]c2c1ccn2[C@@H]1O[C@H]([C@](C)(O)c2ccc(Cl)c(Cl)c2)[C@@H](O)[C@H]1O` [Example 99, 7-((2R,3R,4S,5S)-5-((R)-1-(3,4-dichlorophenyl)-1-hydroxyethyl)-3,4-dihydroxytetrahydrofuran-2-yl)-1,7-dihydro-4H-pyrrolo[2,3-d]pyrimidin-4-one O-ethyl oxime], the IC50 in assay [1] (setting [4]) turned out to be 2.4 nM; in assay [2] (72 h, Granta-519 cell line) it was 8.4 nM; in assay [3] (setting [5]), 94 nM.
As for `O[C@@H]1[C@H](O)[C@@H]([C@H](O)c2ccc(Cl)c(Cl)c2)O[C@H]1n1ccc2/c(=N/OCC(F)(F)F)nc[nH]c21` [Example 103, 7-((2R,3R,4S,5R)-5-((R)-(3,4-dichlorophenyl)(hydroxy)methyl)-3,4-dihydroxytetrahydrofuran-2-yl)-1,4a,7,7a-tetrahydro-4H-pyrrolo[2,3-d]pyrimidin-4-one 0-(2,2,2-trifluoroethyl) oxime], the IC50 in assay [1] (setting [4]) is 29.6 nM; in assay [2] (72 h, Granta-519 cell line) it was 57.9 nM; in assay [3] (setting [5]), 62 nM.
With `O/N=c1/nc[nH]c2c1ccn2[C@@H]1O[C@H]([C@H](O)c2ccc(F)c(Cl)c2)[C@@H](O)[C@H]1O` [compound 65, 7-((2R,3R,4S,5R)-5-((R)-(3-chloro-4-fluorophenyl)(hydroxy)methyl)-3,4-dihydroxytetrahydrofuran-2-yl)-1,7-dihydro-4H-pyrrolo[2,3-d]pyrimidin-4-one oxime], the IC50 was determined as 1.9 nM in assay [1] (setting [4]) and 16 nM in assay [2] (72 h, Granta-519 cell line).
Regarding `O/N=c1\nc[nH]c2c1ccn2[C@@H]1O[C@H]([C@H](O)c2ccc(Cl)c(Cl)c2)[C@@H](O)[C@H]1O` [compound 66, 7-((2R,3R,4S,5R)-5-((R)-(3,4-dichlorophenyl)(hydroxy)methyl)-3,4-dihydroxytetrahydrofuran-2-yl)-1,7-dihydro-4H-pyrrolo[2,3-d]pyrimidin-4-one oxime], the IC50 is 0.4 nM in assay [1] (setting [4]) and 1.8 nM in assay [2] (72 h, Granta-519 cell line).
`O/N=c1\nc[nH]c2c1ccn2[C@@H]1O[C@H]([C@H](O)c2ccc(F)c(F)c2)[C@@H](O)[C@H]1O` [compound 67, 7-((2R,3R,4S,5R)-5-((R)-(3,4-difluorophenyl)(hydroxy)methyl)-3,4-dihydroxytetrahydrofuran-2-yl)-1,7-dihydro-4H-pyrrolo[2,3-d]pyrimidin-4-one oxime]: the IC50 amounted to 0.6 nM in assay [1] (setting [4]) and 10 nM in assay [2] (72 h, Granta-519 cell line).
The like results for `CO/N=c1/nc[nH]c2c1ccn2[C@@H]1O[C@H]([C@H](O)c2ccc(F)c(Cl)c2)[C@@H](O)[C@H]1O` [compound 68, 7-((2R,3R,4S,5R)-5-((R)-(3-chloro-4-fluorophenyl)(hydroxy)methyl)-3,4-dihydroxytetrahydrofuran-2-yl)-1,7-dihydro-4H-pyrrolo[2,3-d]pyrimidin-4-one O-methyl oxime] were, in that order, 35 nM and 90 nM.
Consider `Cc1n/c(=N\O)c2ccn([C@@H]3O[C@H]([C@H](O)c4ccc(Cl)cc4)[C@@H](O)[C@H]3O)c2[nH]1` [compound 71, 7-((2R,3R,4S,5R)-5-((R)-(4-chlorophenyl)(hydroxy)methyl)-3,4-dihydroxytetrahydrofuran-2-yl)-2-methyl-1,7-dihydro-4H-pyrrolo[2,3-d]pyrimidin-4-one oxime], for which the IC50 in assay [1] (setting [4]) stood at 13.9 nM; in assay [2] (72 h, Granta-519 cell line), 260 nM.
On to `O/N=c1/nc[nH]c2c1c(F)cn2[C@@H]1O[C@H]([C@H](O)c2ccc(Cl)cc2)[C@@H](O)[C@H]1O` [compound 72, 7-((2R,3R,4S,5R)-5-((R)-(4-chlorophenyl)(hydroxy)methyl)-3,4-dihydroxytetrahydrofuran-2-yl)-5-fluoro-1,7-dihydro-4H-pyrrolo[2,3-d]pyrimidin-4-one oxime], for which the IC50 was 2.8 nM in assay [1] (setting [4]) and 41 nM in assay [2] (72 h, Granta-519 cell line).
Take `N/N=c1/nc[nH]c2c1c(F)cn2[C@@H]1O[C@H]([C@H](O)c2ccc(Cl)cc2)[C@@H](O)[C@H]1O` [compound 73, (2R,3S,4R,5R)-2-((R)-(4-chlorophenyl)(hydroxy)methyl)-5-(5-fluoro-4-hydrazineylidene-1,4-dihydro-7H-pyrrolo[2,3-d]pyrimidin-7-yl)tetrahydrofuran-3,4-diol]: the IC50 in assay [1] (setting [4]) came to 9.7 nM; in assay [2] (72 h, Granta-519 cell line), 313 nM.
Turning to `CO/N=c1/nc[nH]c2c1ccn2[C@@H]1O[C@H]([C@H](O)c2ccc(C(F)(F)F)c(F)c2)[C@@H](O)[C@H]1O` [compound 78, 7-((2R,3R,4S,5R)-5-((R)-(3-fluoro-4-(trifluoromethyl)phenyl)(hydroxy)methyl)-3,4-dihydroxytetrahydrofuran-2-yl)-1,7-dihydro-4H-pyrrolo[2,3-d]pyrimidin-4-one O-methyl oxime], the IC50 in assay [1] (setting [4]) was 3.1 nM; in assay [2] (72 h, Granta-519 cell line) it was 33 nM.
The like results for `CO/N=c1/nc[nH]c2c1ccn2[C@@H]1O[C@H]([C@H](O)c2ccc(Cl)c(C)c2)[C@@H](O)[C@H]1O` [compound 80, 7-((2R,3R,4S,5R)-5-((R)-(4-chloro-3-methylphenyl)(hydroxy)methyl)-3,4-dihydroxytetrahydrofuran-2-yl)-1,7-dihydro-4H-pyrrolo[2,3-d]pyrimidin-4-one O-methyl oxime] were, in that order, 0.7 nM and 18 nM.
For `CN/N=c1\nc[nH]c2c1ccn2[C@@H]1O[C@H]([C@H](O)c2ccc(Cl)c(Cl)c2)[C@@H](O)[C@H]1O` [compound 81, (2R,3S,4R,5R)-2-((R)-(3,4-dichlorophenyl)(hydroxy)methyl)-5-(4-(2-methylhydrazineylidene)-1,4-dihydro-7H-pyrrolo[2,3-d]pyrimidin-7-yl)tetrahydrofuran-3,4-diol], the IC50 in assay [1] (setting [4]) turned out to be 0.3 nM; in assay [2] (72 h, Granta-519 cell line), 9 nM.
Turning to `CCO/N=c1/[nH]cnc2c1ccn2[C@@H]1O[C@H]([C@H](O)c2ccc(Cl)c(Cl)c2)[C@@H](O)[C@H]1O` [compound 82, 7-((2R,3R,4S,5R)-5-((R)-(3,4-dichlorophenyl)(hydroxy)methyl)-3,4-dihydroxytetrahydrofuran-2-yl)-3,7-dihydro-4H-pyrrolo[2,3-d]pyrimidin-4-one O-ethyl oxime], the IC50 came out at 3.9 nM in assay [1] (setting [4]) and 11 nM in assay [2] (72 h, Granta-519 cell line).
